Reference: US20150025045A1, “CBP AND p300-MEDIATED TRANSCRIPTION MODULATORS AND RELATED METHODS” (THE OHIO STATE UNIVERSITY, priority 2011, published 2015)
Entries after “also recorded” stand apart in the source; their conditions may differ.

Assays:
MCF-7 cells = assay: Cell viability assay (WST-1); format: cell-based; settings: at concentrations ≧50 μM (so in the source)
Description: Viability data was acquired after 24 h using a cell-permeable metabolic dye, WST-1 (Roche). Viability data was normalized based on cell viability in the presence of 1% DMSO.
MCF-7 cells (American Tissue Culture Collection) were seeded at 5000 cells per well in a 96 well plate in RPMI media supplemented with 10% fetal bovine serum and allowed to adhere (37° C. and 5% CO2) overnight. Cells were incubated with 1b in DMSO or DMSO alone to a final DMSO concentration of 1% (v/v) for 24 hrs. WST-1 (Roche) was subsequently added to wells and the 96 well plate was incubated for 1 h at 37° C. Absorbance at 440 nm was read on a Tecan GENios Pro plate reader following 1 minute of orbital shaking. Data was corrected for wells containing media+WST-1 without cells. Each value is the average of at least three wells with the indicated error (SDOM).

Jun = assay: Transcriptional inhibition assay, Ga14 DBD-Jun TAD luciferase reporter in HeLa cells; format: cell-based; settings: in words
Description: Cells were transfected with Firefly (500 ng/mL) and Renilla luciferase (10 ng/mL) plasmids in addition to plasmids encoding the DBD of Ga14 fused to the minimal activation domains of either MLL (250 ng/mL), Jun (100 ng/mL), or ESX (500 ng/mL, 0.1 mL of total transfection solution). Four hours post-transfection cells were treated with increasing concentration of 1b (0→50 μM) as a solution in DMSO such that the final DMSO concentration was 1% (v/v). Percent inhibition is the ratio of fold activation of Jun at each concentration of compound and the fold activation of Jun in a DMSO-treated control. Each bar represents at least three independent experiments with the indicated error (SDOM). For each concentration level of 1b shown in FIG. 5a, the first data column from the left is Jun, the middle column is MLL, and the third column is ESX. (b) MCF-7 cells were treated with 40 μM 1b (as a solution in DMSO such that the final concentration of DMSO was 1% v/v) for 24 h, at which time the cells were lysed and the lysates separated by SDS-PAGE. Western blots were performed using commercial antibodies against GAPDH, Jun, and cyclin D1.
(b) Analogs of 1b tested for MLL and Jun inhibition. (c) Inhibition of Jun with isoxazolidine analogs Inhibition assays were carried out as described in FIG. 5a (SEQ ID NOs:1-4). For each concentration level shown in FIG. 6c, the compound data is shown (from the left) in the following order: 3, 4, 5, 6, 7, 8 and 9.
HeLa cells (10,000 per well) were transfected with a Firefly luciferase reporter (500 ng/mL), and Renilla (10 ng/mL) control plasmid in addition to a plasmid encoding for either the MLL (250 ng/mL) or Jun (100 ng/mL) activation domain fused to the DNA-binding domain of Ga14 in 0.1 mL Optimem. The Optimem was removed and 0.1 mL of DMEM supplemented with 10% FBS and compound was added four hours post-transfection and the luminescence was assessed after 24 h as described above.

KIX domain of CBP = molecular target: T1, KIX domain of CBP (Mus musculus, UniProt P45481); assay: 1H-15N-HSQC binding analysis; settings: 200 μM 15N-His6KIX, 5 eq. compound
T1 construct: the KIX domain, an 87-residue module whose solution structure has been elucidated; made in house
T1 sequence (P45481 586-665 limits assumed): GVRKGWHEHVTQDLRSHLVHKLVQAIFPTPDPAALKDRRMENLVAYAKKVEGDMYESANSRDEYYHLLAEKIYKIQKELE
Description: The amide chemical shifts that change upon addition of 4 were quantitated were quantified using the equation: Δδ=[Δδ(^1H)^2+0.1Δδ(^15N)^2]^1/2, FIG. 7B bottom.
Uniformly labeled His6KIX protein was expressed and purified as previously described and stored as a lyophilized powder (see, e.g., Buhrlage, 2009). A 200 μM solution of His6KIX was prepared by dissolving the lyophilized protein, in a 9:1 H2O:D2O 10 mM PBS buffer containing 150 mM NaCl at pH 7.2. ^1H-^15N HSQC experiments were recorded at 27° C. on an Avance Bruker 600 MHz NMR spectrometer equipped with a 5 mm cryogenic probe. An HSQC was collected in the absence of isoxazolidine 4 and compared with data recorded in the presence of 5 eq. (1 mM) of 4. Data was processed using NMRPIPE. Chemical shift assignments were based on previously reported data′ and chemical shift analyses with Sparky software were quantified (Δδ=[Δδ(^1H)^2+0.1Δδ(^15N)^2]^1/2).

SMILES	toxicity (MCF-7 cells)	effect on Jun-driven transcription (Jun)	KIX binding by 1H-15N-HSQC (KIX domain of CBP)
CC(C)C[C@]1(CCO)C[C@H](CN=[N+]=[N-])ON1Cc1ccc(O)cc1 (racemic) [isoxazolidine 4]	no measurable toxicity	little activity	did not negatively impact KLX binding
CC(C)C[C@]1(CCO)C[C@H](CN=[N+]=[N-])ON1Cc1ccc(F)cc1 (racemic) [isoxazolidine 6]		dose-dependent manner; also recorded: enhanced potency	
CC(C)CCN1O[C@@H](CN=[N+]=[N-])C[C@@]1(CCO)CC(C)C (racemic) [isoxazolidine 7]		dose-dependent manner; also recorded: enhanced potency	
CC(C)CN1O[C@@H](CN=[N+]=[N-])C[C@@]1(CCO)CC(C)C (racemic) [isoxazolidine 8]		little activity	
CCCN1O[C@@H](CN=[N+]=[N-])C[C@@]1(CCO)CC(C)C (racemic) [isoxazolidine 9]		little activity	
